Earlier results, collected in publication PMC6974622, “DeepMalaria: Artificial Intelligence Driven Discovery of Potent Antiplasmodials” (Frontiers in Pharmacology, 2020).
Several values for one entry are separate records, joined by “and”; a condition that tells them apart may be missing. Identical values can stand only once.

Tested on: 3D7
Parameters: unit not given here
Conditions: cited from earlier work

SMILES	3D7
COc1cc2ncnc(Nc3ccc(F)c(Cl)c3)c2cc1OCCCN1CCOCC1 [Geftinib]	67.6
CN(C)c1ccc(C(=C2C=CC(=[N+](C)C)C=C2)c2ccccc2)cc1 [Malachite green]	86.9
CNCCCC12CCC(c3ccccc31)c1ccccc12 [Maprotiline]	62.7
COC(=O)C1=C(C)NC(C)=C(C(=O)OCCCN2CCC(c3ccccc3)(c3ccccc3)CC2)[C@H]1c1cccc([N+](=O)[O-])c1 [Niguldipine]	89.3
CN1CCN(CCCN2c3ccccc3Sc3ccc(Cl)cc32)CC1 [Prochlorperazine edisylate]	73.3
OCc1cc(C(O)CNCCCCCCOCCCCc2ccccc2)ccc1O (stereo not drawn) [Salmeterol xinafoate]	72.5

Same assay, conditions: repurposing dataset, 179 approved drugs; ref https://www.nature.com/articles/nchembio806; cited from earlier work

SMILES	3D7
CCOc1ccc2nc3cc(N)ccc3c(N)c2c1 [Ethacridine lactate]	96.2
O=c1[nH]cc(F)c(=O)[nH]1 [Fluorouracil]	89.2
Fc1ccc(C(c2ccccc2)(c2ccccc2F)n2ccnc2)cc1 (stereo not drawn) [Flutrimazole]	85.2
Nc1ccn([C@@H]2O[C@H](CO)[C@@H](O)C2(F)F)c(=O)n1 [Gemcitabine]	75.3
CN(C)c1ccc(C(=C2C=CC(=[N+](C)C)C=C2)c2ccc(N(C)C)cc2)cc1 [Gentian violet]	98.7
N=C(N)N/N=C/c1c(Cl)cccc1Cl [Guanabenz acetate]	92.7
CCCCC(CC)CN1CN(CC(CC)CCCC)CC(C)(N)C1 (stereo not drawn) [Hexetidine]	86.2
CC[n+]1c(-c2ccccc2)c2cc(N)ccc2c2ccc(N)cc21 [Homidium bromide]	98.9
CCN(CCO)CCCC(C)Nc1ccnc2cc(Cl)ccc12 (stereo not drawn) [Hydroxychloroquine]	97.7
CC(=O)[C@]1(O)Cc2c(O)c3c(c(O)c2[C@@H](O[C@H]2C[C@H](N)[C@H](O)[C@H](C)O2)C1)C(=O)c1ccccc1C3=O [Idarubicin]	98.9
CC(C(O)c1ccc(O)cc1)N1CCC(Cc2ccccc2)CC1 (stereo not drawn) [Ifenprodil]	82.3
CC[C@@H](C(=O)[C@@H](C)[C@@H](O)[C@H](C)CCc1ccc(C)c(O)c1C(=O)O)[C@H]1O[C@](CC)([C@H]2CC[C@](O)(CC)[C@H](C)O2)C[C@@H]1C [Lasalocid A]	98.2
CN(C)C(=O)C(CCN1CCC(O)(c2ccc(Cl)cc2)CC1)(c1ccccc1)c1ccccc1 [Loperamide]	97.7
Cc1cccc(C)c1OCC(=O)N[C@@H](Cc1ccccc1)[C@@H](O)C[C@H](Cc1ccccc1)NC(=O)[C@H](C(C)C)N1CCCNC1=O [Lopinavir]	84.9
[Cl][Mn][Cl] [Manganese chloride]	94.1
CN1CCc2c(c3ccccc3n2Cc2ccccc2)C1 [Mebhydrolin]	57.1
OC(c1cc(C(F)(F)F)nc2c(C(F)(F)F)cccc12)C1CCCCN1 (stereo not drawn) [Mefloquine]	97.7
N[C@@H](Cc1ccc(N(CCCl)CCCl)cc1)C(=O)O [Melphalan]	59.5
S=c1[nH]cnc2nc[nH]c12 [Mercaptopurine]	91.8
CN1C[C@H](CNC(=O)OCc2ccccc2)C[C@@H]2c3cccc4c3c(cn4C)C[C@H]21 [Metergoline]	85.9
CN(Cc1cnc2nc(N)nc(N)c2n1)c1ccc(C(=O)N[C@@H](CCC(=O)O)C(=O)O)cc1 [Methotrexate]	98.4
Cc1cc(C(C)(C)CC(C)(C)C)ccc1OCCOCC[N+](C)(C)Cc1ccccc1.[Cl-] [Methylbenzethonium chloride]	97.7
CN(C)c1ccc2nc3ccc(=[N+](C)C)cc-3sc2c1 [Methylene blue]	98

SMILES	3D7
COCC(=O)O[C@]1(CCN(C)CCCc2nc3ccccc3[nH]2)CCc2cc(F)ccc2[C@@H]1C(C)C [Mibefradil]	92
CCCCCCCCCCCCCCCCOP(=O)([O-])OCC[N+](C)(C)C [Miltefosine]	99.5
O=C1c2c(O)ccc(O)c2C(=O)c2c(NCCNCCO)ccc(NCCNCCO)c21 [Mitoxantrone]	99.2 and 98.4
COc1c(C)c2c(c(O)c1C/C=C(\C)CCC(=O)O)C(=O)OC2 [Mycophenolic acid]	92.7
O=[N+]([O-])c1ccc(O)c2ncccc12 [Nitroxoline]	97.2
COC(=O)[C@@H]1c2cc3c(c(O)c2[C@@H](O[C@@H]2O[C@@H](C)[C@H](OC)[C@@](C)(OC)[C@H]2OC)C[C@]1(C)O)C(=O)c1c(O)cc2c(c1C3=O)O[C@@H]1O[C@@]2(C)[C@H](O)[C@@H](N(C)C)[C@@H]1O [Nogalamycin]	85.3
O=C1[O][Pt]2([NH][C@@H]3CCCC[C@H]3[NH]2)[O]C1=O [Oxaliplatin]	55.4
CC(=O)O[C@H]1C(=O)[C@@]2(C)[C@H]([C@H](OC(=O)c3ccccc3)[C@]3(O)C[C@H](OC(=O)[C@H](O)[C@@H](NC(=O)c4ccccc4)c4ccccc4)C(C)=C1C3(C)C)[C@]1(OC(C)=O)CO[C@@H]1C[C@@H]2O [Paclitaxel]	84.5
CC(=O)O[C@H]1C[C@@H]2CC[C@@H]3[C@H](CC[C@@]4(C)[C@H]3C[C@H]([N+]3(C)CCCCC3)[C@@H]4OC(C)=O)[C@@]2(C)C[C@@H]1[N+]1(C)CCCCC1 [Pancuronium bromide]	52.6
N=C1C=CC(=C(c2ccc(N)cc2)c2ccc(N)cc2)C=C1 [Pararosaniline pamoate]	97.3
Fc1ccc([C@@H]2CCNC[C@H]2COc2ccc3c(c2)OCO3)cc1 [Paroxetine]	85.4
N=C(N)c1ccc(OCCCCCOc2ccc(C(=N)N)cc2)cc1 [Pentamidine isethionate]	99.1
C1CCC(C(CC2CCCCN2)C2CCCCC2)CC1.O=C(O)/C=C\C(=O)O (stereo not drawn) [Perhexilline maleate]	97.5
OCCN1CCN(CCCN2c3ccccc3Sc3ccc(Cl)cc32)CC1 [Perphenazine]	85.6
CN1CCC(=C2c3ccccc3Sc3ccccc32)CC1 [Pimethixene]	75.5
CC(=O)c1ccc2c(c1)N(CCCN1CCC(CCO)CC1)c1ccccc1S2 [Piperacetazine]	88.5
O.O.O.O=C([O-])[C@H]([O-])[C@@H]([O-])C(=O)[O-].O=C([O-])[C@H]([O-])[C@@H]([O-])C(=O)[O-].[K+].[K+].[Sb+3].[Sb+3] [Potassium antimonyl tartrate]	95.5
COc1cc(NC(C)CCCN)c2ncccc2c1 (stereo not drawn) [Primaquine]	99.1
CCCC(C(=O)OCCN(CC)CC)(c1ccccc1)c1ccccc1 [Proadifen]	85.9
Nc1ccc2cc3ccc(N)cc3nc2c1 [Proflavine]	96.2
CC(C)NCC(O)c1ccc2ccccc2c1 (stereo not drawn) [Pronetalol]	95.3
CCC(=O)c1ccc2c(c1)N(CC(C)N(C)C)c1ccccc1S2.O=C(O)/C=C\C(=O)O (stereo not drawn) [Propiomazine maleate]	77
COc1ccc(C[C@H](N)C(=O)N[C@H]2[C@@H](O)[C@H](n3cnc4c(N(C)C)ncnc43)O[C@@H]2CO)cc1 [Puromycin]	98.9

SMILES	3D7
CCc1nc(N)nc(N)c1-c1ccc(Cl)cc1 [Pyrimethamine]	96.5
CCN(CC)CCCC(C)Nc1c2ccc(Cl)cc2nc2ccc(OC)cc12 (stereo not drawn) [Quinacrine]	99.2
C=C[C@H]1C[N@@]2CC[C@H]1C[C@@H]2[C@@H](O)c1ccnc2ccc(OC)cc12 [Quinidine]	88.5
C=C[C@H]1CN2CC[C@H]1C[C@H]2[C@H](OC(=O)OCC)c1ccnc2ccc(OC)cc12 [Quinine ethyl carbonate]	94.5
C=C[C@H]1C[N@@]2CC[C@H]1C[C@H]2[C@H](O)c1ccnc2ccc(OC)cc12 [Quinine]	98.3
O=C(c1ccc(OCCN2CCCCC2)cc1)c1c(-c2ccc(O)cc2)sc2cc(O)ccc12 [Raloxifene]	97.1
CO[C@H]1C[C@@H]2CC[C@@H](C)[C@@](O)(O2)C(=O)C(=O)N2CCCC[C@H]2C(=O)O[C@H]([C@H](C)C[C@@H]2CC[C@@H](O)[C@H](OC)C2)CC(=O)[C@H](C)/C=C(\C)[C@@H](O)[C@@H](OC)C(=O)[C@H](C)C[C@H](C)/C=C/C=C/C=C/1C [Rapamycin]	51.4
Cc1nc2n(c(=O)c1CCN1CCC(c3noc4cc(F)ccc34)CC1)CCCC2 [Risperidone]	67.5
CC(C)c1nc(CN(C)C(=O)N[C@H](C(=O)N[C@@H](Cc2ccccc2)C[C@H](O)[C@H](Cc2ccccc2)NC(=O)OCc2cncs2)C(C)C)cs1 [Ritonavir]	84.9
C=CC[N+]1([C@H]2C[C@H]3[C@@H]4CC[C@H]5C[C@H](O)[C@@H](N6CCOCC6)C[C@]5(C)[C@H]4CC[C@]3(C)[C@H]2OC(C)=O)CCCC1 [Rocuronium bromide]	52.6
CC[C@@H](C(=O)[C@@H](C)[C@@H](O)[C@H](C)[C@@H]1O[C@@H]([C@@H](CC)C(=O)O)CC[C@@H]1C)[C@H]1O[C@]2(C=C[C@@H](O)[C@]3(CC[C@@](C)([C@H]4CC[C@](O)(CC)[C@H](C)O4)O3)O2)[C@H](C)C[C@@H]1C [Salinomycin]	99.1
CC(=O)[O][Pt]([NH2])([Cl])([Cl])([NH]C1CCCCC1)[O]C(C)=O [Satraplatin]	87.3
CCCCCCCCCCCCCCCCCC[N+](C)(C)C.[Cl-] [Stearyltrimethylammonium chloride]	78.6
CCCCCCCCNC(C)C(O)c1ccc(SC(C)C)cc1 (stereo not drawn) [Suloctidil]	97.3
CO[C@@H]1[C@H](OC(=O)NC(=O)CCl)CC[C@]2(CO2)[C@H]1[C@@]1(C)O[C@@H]1CC=C(C)C [TNP-470]	67
CC/C(=C(\c1ccccc1)c1ccc(OCCN(C)C)cc1)c1ccccc1 [Tamoxifen]	97.5
CC(C)N1CCN(c2ccc(OCC3COC(Cn4cncn4)(c4ccc(Cl)cc4Cl)O3)cc2)CC1 (stereo not drawn) [Terconazole]	56
Nc1nc2nc[nH]c2c(=S)[nH]1 [Thioguanine]	68.7
CN(C)C(=S)SSC(=S)N(C)C [Thiram]	96.7
CCCCCCCCCCCCCCCC[N+](C)(C)CCN(Cc1ccc(OC)cc1)c1ncccn1 [Thonzonium bromide]	97.5
CCN(CC)CCOc1ccc2c(c1)C(=O)c1cc(OCCN(CC)CC)ccc1-2 [Tilorone]	98.9
CC[C@@]1(O)C(=O)OCc2c1cc1n(c2=O)Cc2cc3c(CN(C)C)c(O)ccc3nc2-1 [Topotecan]	80.1
Nc1nc(N)c2nc(-c3ccccc3)c(N)nc2n1 [Triamterene]	79.4
